Measurements published in patent publication US20180161314A1, “Methods for Treating Hyperuricemia and Related Diseases” (Ardea Biosciences, Inc., priority 2010, published 2018).

Test system: gout patients with hyperuricemia
Test: Febuxostat alone and in combination with drug 1, open-label study in gout patients with hyperuricemia (Examples 23, 24)
Format: in vivo, human
Conditions: for Mean absolute sUA reduction / Mean sUA % change / Mean sUA level: ± SE
Method: Study Objectives • To measure the effect of febuxostat alone and in combination with drug 1 on serum urate concentrations. • To evaluate the safety and tolerability of drug 1 in combination with febuxostat.
The study is open-label in gout patients with hyperuricemia, involving 2 panels of ˜10-12 patients per panel. The panels may be enrolled simultaneously.
Panel 1 receives a once-daily dose of febuxostat 40 mg with ascending doses of drug 1. Panel 2 receives a once-daily dose of febuxostat 80 mg with ascending doses of drug 1.
• Day −14 to Day 28: colchicine prophylaxis; or • Day −7 to Day 28: colchicine prophylaxis (for patients not washing out from ULT) • Days 1-7: febuxostat 40 mg qd • Days 8-14: febuxostat 40 mg qd+drug 1 400 mg qd • Days 15-21: febuxostat 40 mg qd+drug 1 600 mg qd
• Day −14 to Day 28: colchicine prophylaxis; or • Day −7 to Day 28: colchicine prophylaxis (for patients not washing out from ULT) • Days 1-7: febuxostat 80 mg qd • Days 8-14: febuxostat 80 mg qd+drug 1 400 mg qd • Days 15-21: febuxostat 80 mg qd+drug 1 600 mg qd
Gout patients on a urate lowering therapy (ULT), have previously taken a ULT or who have never taken a ULT are eligible to participate. Screening procedures to determine patient eligibility are performed within approximately 21 days of the first dose of study drug (Day 1). Subjects currently on ULT wash-out for approximately 14 days before Day 1, and begin colchicine (Colcrys® 0.6 mg qd, URL Pharma) as prophylaxis for gout flares. During the washout period, subjects who have discontinued ULT may have their sUA re-tested (at least 7 days after washing out) to confirm eligibility. Subjects not on ULT begin colchicine administration at least 7 days prior to Day 1. […] Patients intolerant of colchicine during the screening period are considered screen failures and not enrolled. Prophylactic administration of colchicine continues for 7 days after the last dose of study medication.
Eligible patients report to the study center early morning on Days −1, 7, 14, and 21 (or the afternoon/evening the day before). Serial blood samples are collected on Days −1, 7, 14, and 21. 24-hour urine collection is obtained on Days −1, 7, 14, and 21. Spot urine assessments also obtained on Day −1.
Study medication is administered to each patient and taken orally every morning with approximately 240 mL of water, at approximately the same time of the morning every day, and approximately 30 minutes after finishing a full breakfast (approximately 650 Kcal and 35% fat); the breakfast is standardized on Days −1 to 21.
Inclusion Criteria • Patient is male or post-menopausal or surgically sterile female. • Patient is 18-80 years of age, inclusive. • Patient meets one or more criteria for the diagnosis of gout as per the American Rheumatism Association (ARA) Criteria for the Classification of Acute Arthritis of Primary Gout (Appendix C). • Patient sUA≥8 mg/dL at screening. • Patient willing and able to give informed consent and adhere to visit/protocol schedules • No clinically relevant abnormalities in blood pressure (BP), heart rate (HR), body temperature and respiratory rate as per Investigator's judgment.
Subject urate serum levels are recorded, and any safety concerns assessed (by adverse events, clinical laboratory test results, vital signs, 12-lead ECGs, and physical examinations). […] Urate serum concentrations are evaluated for treatment- and/or time-dependent changes relative to baseline (Day −1), and may be expressed both in standard units (mg/dL) and as changes from baseline (e.g., percent change, absolute change, maximal change, and time or day of maximal change).
Drug 1 was tested according to the clinical trial protocol described in Example 23.
Serum urate levels were measured and absolute and % reduction levels from baseline calculated. Mean levels, mean absolute reductions (mg/dL, all data SE) and % change results are presented in the table below and in FIGS. 10 and 11. […]

[1] = FBX 40 mg alone, FBX 40 mg + Drug 1 400 mg
[2] = FBX 40 mg qd alone days 1-7, FBX 40 mg + Drug 1 400 mg qd days 8-14
[3] = FBX 80 mg alone, FBX 80 mg + Drug 1 400 mg
[4] = FBX 80 mg qd alone days 1-7, FBX 80 mg + Drug 1 400 mg qd days 8-14

Question: Which results are given for Cc1nc(-c2ccc(OCC(C)C)c(C#N)c2)sc1C(=O)O [Febuxostat, 2-(3-Cyano-4-isobutoxyphenyl)-4-methyl-1,3-thiazole-5-carboxylic acid, reference compound]?
Answer: % Response rate for sUA <3 mg/dL [1]: 0%; % Response rate for sUA <4 mg/dL [1]: 0%; % Response rate for sUA <5 mg/dL [1]: 17%; % Response rate for sUA <6 mg/dL [1]: 67%; Mean absolute sUA reduction [2]: -3.2 ± 0.21 mg/dL; Mean sUA % change [2]: −35.7 ± 2.0%; Mean sUA level [2]: 5.6 ± 0.24 mg/dL; % Response rate for sUA <3 mg/dL [3]: 0%; % Response rate for sUA <4 mg/dL [3]: 0%; % Response rate for sUA <5 mg/dL [3]: 22%; % Response rate for sUA <6 mg/dL [3]: 56%; Mean absolute sUA reduction [4]: -4.6 ± 0.51 mg/dL; Mean sUA % change [4]: −44.2 ± 3.5%; Mean sUA level [4]: 5.7 ± 0.29 mg/dL
